Measured values from patent US20250352541A1, “THERAPEUTIC FOR CANCER REFRACTORY TO IMMUNE CHECKPOINT INHIBITOR” (Sumitomo Pharma Co., Ltd., priority 2022, published 2025).

How the values were obtained:
hERG current = hERG current (Homo sapiens (Human), UniProt Q12809); experiment: hERG current blocking test; conditions: for hERG/CHK1: IC50 of hERG divided by IC50 of CHK1 inhibition; for IC50: read-out: hERG inhibition IC50, hERG expressing CHO cells
CHK1 = CHK1 (Homo sapiens (Human), UniProt O14757); experiment: CHK1 inhibitory activity test (IMAP TR-FRET)
CHK1, sequence (O14757 whole entry): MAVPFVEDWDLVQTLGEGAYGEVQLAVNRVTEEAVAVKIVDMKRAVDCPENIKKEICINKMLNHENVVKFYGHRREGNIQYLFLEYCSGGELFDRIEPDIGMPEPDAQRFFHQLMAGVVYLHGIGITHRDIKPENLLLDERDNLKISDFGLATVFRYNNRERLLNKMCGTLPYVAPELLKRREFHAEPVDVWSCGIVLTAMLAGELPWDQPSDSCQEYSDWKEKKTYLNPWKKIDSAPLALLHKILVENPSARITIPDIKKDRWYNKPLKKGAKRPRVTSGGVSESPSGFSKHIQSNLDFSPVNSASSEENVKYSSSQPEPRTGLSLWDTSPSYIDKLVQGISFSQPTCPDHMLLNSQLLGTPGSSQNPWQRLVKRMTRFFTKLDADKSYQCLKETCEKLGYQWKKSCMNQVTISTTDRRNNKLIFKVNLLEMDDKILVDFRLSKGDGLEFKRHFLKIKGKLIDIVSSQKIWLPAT

CYP3A4 = CYP3A4 (Homo sapiens (Human), UniProt P08684); experiment: CYP3A4 MBI and enzyme inactivation clearance evaluation; type: in vitro ADME; conditions: for Factor of change in IC50 value: human liver microsome, pre-incubation in the presence of NADPH
CYP3A4, sequence (P08684 whole entry): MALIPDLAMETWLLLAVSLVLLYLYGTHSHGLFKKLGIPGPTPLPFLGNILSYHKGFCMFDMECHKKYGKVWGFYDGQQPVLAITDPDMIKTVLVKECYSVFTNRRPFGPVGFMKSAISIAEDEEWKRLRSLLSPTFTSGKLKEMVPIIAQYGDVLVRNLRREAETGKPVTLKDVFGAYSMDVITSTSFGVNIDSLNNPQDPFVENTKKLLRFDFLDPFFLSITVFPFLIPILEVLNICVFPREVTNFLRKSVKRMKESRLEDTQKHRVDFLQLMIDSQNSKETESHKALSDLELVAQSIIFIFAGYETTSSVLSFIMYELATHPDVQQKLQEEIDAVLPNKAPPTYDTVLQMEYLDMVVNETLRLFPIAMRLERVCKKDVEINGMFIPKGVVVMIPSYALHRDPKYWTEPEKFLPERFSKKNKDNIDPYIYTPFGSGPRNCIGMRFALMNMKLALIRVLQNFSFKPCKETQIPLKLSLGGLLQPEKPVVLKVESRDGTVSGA
Protocol: The effect and mode of inhibition of the test compound on CYP3A4 were evaluated using a human liver microsome as an enzyme source and midazolam or testosterone as a substrate. […] The IC50 value was calculated from a concentration plot.

ES-2 cells = experiment: Cell growth suppression experiment; type: cell-based
Protocol: ES-2 cells were obtained from the American Type Culture Collection (ATCC). These cells were cultured at 37° C. in the presence of 5% CO2 in a 10% fetal bovine serum, 1% penicillin/streptomycin containing McCoy's 5a medium.
500 cells were seeded for each well in a 384-well plate, and the evaluated compound was added so that the final concentration of DMSO would be 0.1% to culture the cells for 2 days. After completion of the culture, the cell viability rate was calculated using CellTiter-Glo® 3D Reagent (Promega, G968B).
The results of cell growth suppression test on representative compounds of the present disclosure are listed in the following table based on the ranking of I, IT, III, IV, and V (1000 nM<I, 1000 nM>TI>300 nM, 300 nM>III>100 nM, 100 nMV>IV>30 nM, 30 nM>V).

hERG current, sequence (Q12809 whole entry): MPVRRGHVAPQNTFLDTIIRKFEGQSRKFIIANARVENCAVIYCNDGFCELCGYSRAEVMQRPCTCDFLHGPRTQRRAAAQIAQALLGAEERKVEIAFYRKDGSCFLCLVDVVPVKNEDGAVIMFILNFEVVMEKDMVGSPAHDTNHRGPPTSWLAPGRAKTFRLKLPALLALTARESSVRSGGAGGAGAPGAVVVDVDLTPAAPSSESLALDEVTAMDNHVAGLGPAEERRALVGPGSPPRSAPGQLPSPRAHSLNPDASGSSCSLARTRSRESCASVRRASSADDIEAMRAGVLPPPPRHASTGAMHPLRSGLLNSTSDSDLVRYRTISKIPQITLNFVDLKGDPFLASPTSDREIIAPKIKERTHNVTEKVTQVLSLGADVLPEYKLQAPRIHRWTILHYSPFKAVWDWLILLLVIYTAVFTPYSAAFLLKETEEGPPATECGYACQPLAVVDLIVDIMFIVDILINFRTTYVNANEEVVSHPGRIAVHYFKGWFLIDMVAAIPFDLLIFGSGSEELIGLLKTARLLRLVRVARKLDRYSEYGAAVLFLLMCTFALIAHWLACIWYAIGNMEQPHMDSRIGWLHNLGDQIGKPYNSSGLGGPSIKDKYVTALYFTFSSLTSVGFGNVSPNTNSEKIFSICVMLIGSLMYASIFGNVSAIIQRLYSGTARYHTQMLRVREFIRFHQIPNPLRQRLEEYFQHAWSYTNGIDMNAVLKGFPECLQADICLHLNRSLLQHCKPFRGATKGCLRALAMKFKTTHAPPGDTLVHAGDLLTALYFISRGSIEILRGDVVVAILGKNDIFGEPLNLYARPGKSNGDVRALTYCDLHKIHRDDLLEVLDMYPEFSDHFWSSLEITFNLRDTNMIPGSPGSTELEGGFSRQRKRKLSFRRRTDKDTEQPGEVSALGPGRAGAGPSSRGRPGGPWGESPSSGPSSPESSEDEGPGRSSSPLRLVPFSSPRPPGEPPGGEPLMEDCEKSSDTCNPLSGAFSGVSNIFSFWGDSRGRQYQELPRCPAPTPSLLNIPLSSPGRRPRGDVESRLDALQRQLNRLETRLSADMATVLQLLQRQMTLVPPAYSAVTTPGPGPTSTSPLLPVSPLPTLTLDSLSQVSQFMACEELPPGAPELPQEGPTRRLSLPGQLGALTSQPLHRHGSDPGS

SMILES	hERG/CHK1 (hERG current)	IC50 (hERG current) [nM]	IC50 (CHK1) [nM]	effect of suppressing CHK1 activity compared with prexasertib (CHK1)	Factor of change in IC50 value (CYP3A4)	cell growth suppression effect compared with prexasertib (ES-2 cells)	inhibition at 0.0001 µM (CHK1; read-out: CHK1 inhibition % at 0.1 nM) [%]	inhibition of CYP3A4 based on MBI (CYP3A4)
COc1cncc(OC[C@@H]2CNCCO2)c1-c1cc(Nc2cnc(C#N)cn2)n[nH]1 (stereo in doubt) [Example 12, 5-[(5-{3-methoxy-5-[(morpholin-2-yl)methoxy]pyridin-4-yl}-1H-pyrazol-3-yl)amino]pyrazine-2-carbonitrile]	9118	3100	0.34	more potent effect of suppressing CHK1 activity than prexasertib	–	–	–	–
COc1cncc(OC[C@H]2CNCCO2)c1-c1cc(Nc2cnc(C#N)cn2)n[nH]1 (stereo in doubt) [Example 13, 5-[(5-{3-methoxy-5-[(morpholin-2-yl)methoxy]pyridin-4-yl}-1H-pyrazol-3-yl)amino]pyrazine-2-carbonitrile]	<3649	< 2700	0.74	–	–	–	–	–
COc1nccc(OCC2(CO)CNC2)c1-c1cc(Nc2cnc(C#N)cn2)n[nH]1 [Example 8, 5-{[5-(4-{[3-(hydroxymethyl)azetidin-3-yl]methoxy}-2-methoxypyridin-3-yl)-1H-pyrazol-3-yl]amino}pyrazine-2-carbonitrile]	>1000000	> 100000	< 0.1	more potent effect of suppressing CHK1 activity than prexasertib	Not Detected	–	–	–
COc1ccnc(OCCCN)c1-c1cc(Nc2cnc(C(F)(F)F)cn2)n[nH]1 [Example 16, N-{5-[2-(3-aminopropoxy)-4-methoxypyridin-3-yl]-1-H-pyrazol-3-yl}-5-(trifluoromethyl)pyrazin-2-amine]	<888	< 2700	3.04	–	–	–	–	–
COc1cncc(OC[C@]2(F)CCNC2)c1-c1cc(Nc2cnc(C#N)cn2)n[nH]1 [Example 20, (S)-5-[(5-{3-[(3-fluoropyrrolidin-3-yl)methoxy]-5-methoxypyridin-4-yl}-1H-pyrazol-3-yl)amino]pyrazine-2-carbonitrile]	11176	3800	0.34	more potent effect of suppressing CHK1 activity than prexasertib	–	excellent cell growth suppression effect that is equivalent to that of prexasertib	–	–
COc1cncc(OC[C@@]2(F)CCNC2)c1-c1cc(Nc2cnc(C#N)cn2)n[nH]1 [Example 22, (R)-5-[(5-{3-[(3-fluoropyrrolidin-3-yl)methoxy]-5-methoxypyridin-4-yl}-1H-pyrazol-3-yl)amino]pyrazine-2-carbonitrile]	12500	3000	0.24	more potent effect of suppressing CHK1 activity than prexasertib	–	excellent cell growth suppression effect that is equivalent to that of prexasertib	–	–
COc1cncc(OCC2(C)CNC2)c1-c1cc(Nc2cnc(C#N)cn2)n[nH]1 [Example 25, 5-[(5-{3-methoxy-5-[(3-methylazetidin-3-yl)methoxy]pyridin-4-yl}-1H-pyrazol-3-yl)amino]pyrazine-2-carbonitrile]	–	–	0.74	–	–	excellent cell growth suppression effect that is equivalent to that of prexasertib	–	–
COc1cncc(OCC2(C(F)F)CNC2)c1-c1cc(Nc2cnc(C#N)cn2)n[nH]1 [Example 26, 5-{[5-(3-{[3-(difluoromethyl)azetidin-3-yl]methoxy}-5-methoxypyridin-4-yl)-1H-pyrazol-3-yl]amino}pyrazine-2-carbonitrile]	–	–	0.14	more potent effect of suppressing CHK1 activity than prexasertib	–	excellent cell growth suppression effect that is equivalent to that of prexasertib	–	–
COc1cncc(OC[C@@H](C)CN)c1-c1cc(Nc2cnc(C#N)cn2)n[nH]1 [Example 27]	–	–	3.46	–	–	excellent cell growth suppression effect that is equivalent to that of prexasertib	–	–
COc1cncc(OC[C@H](C)CN)c1-c1cc(Nc2cnc(C#N)cn2)n[nH]1 [Example 28]	–	–	0.5	more potent effect of suppressing CHK1 activity than prexasertib	–	excellent cell growth suppression effect that is equivalent to that of prexasertib	–	–
COc1cncc(OC[C@@H](F)CN)c1-c1cc(Nc2cnc(C#N)cn2)n[nH]1 [Example 29, 5-[(5-{3-[(2S)-3-amino-2-fluoropropoxy]-5-methoxypyridin-4-yl}-1H-pyrazol-3-yl)amino]pyrazine-2-carbonitrile]	18667	11200	0.6	–	Not Detected	excellent cell growth suppression effect that is equivalent to that of prexasertib	< 5	–
COc1cncc(OC[C@H](F)CN)c1-c1cc(Nc2cnc(C#N)cn2)n[nH]1 [Example 30, 5-[(5-{3-[(2R)-3-amino-2-fluoropropoxy]-5-methoxypyridin-4-yl}-1H-pyrazol-3-yl)amino]pyrazine-2-carbonitrile]	40000	10400	0.26	more potent effect of suppressing CHK1 activity than prexasertib	Not Detected	excellent cell growth suppression effect that is equivalent to that of prexasertib	–	–
CNCCCOc1cncc(OC)c1-c1cc(Nc2cnc(C#N)cn2)n[nH]1 [Example 31, 5-[(5-{3-methoxy-5-[3-(methylamino)propoxy]pyridin-4-yl}-1H-pyrazol-3-yl)amino]pyrazine-2-carbonitrile]	–	–	0.75	–	–	excellent cell growth suppression effect that is equivalent to that of prexasertib	–	–
COc1cncc(O[C@H](C)C2CNC2)c1-c1cc(Nc2cnc(C#N)cn2)n[nH]1 [Example 33, 5-[(5-{3-[(1R)-1-(azetidin-3-yl)ethoxy]-5-methoxypyridin-4-yl}-1H-pyrazol-3-yl)amino]pyrazine-2-carbonitrile]	–	–	0.69	–	–	excellent cell growth suppression effect that is equivalent to that of prexasertib	–	–
CN[C@@H]1CC[C@@H](Oc2cncc(OC)c2-c2cc(Nc3cnc(C#N)cn3)n[nH]2)C1 [Example 35, 5-{[5-(3-methoxy-5-{[(1R,3R)-3-(methylamino)cyclopentyl]oxy}pyridin-4-yl)-1H-pyrazol-3-yl]amino}pyrazine-2-carbonitrile]	–	–	0.62	–	–	excellent cell growth suppression effect that is equivalent to that of prexasertib	–	–
COc1cncc(O[C@H]2C[C@H](N)[C@H]3C[C@H]32)c1-c1cc(Nc2cnc(C#N)cn2)n[nH]1 [Example 36, 5-{[5-(3-{[(1R,2S,4S,5S)-4-aminobicyclo[3.1.0]hexan-2-yl]oxy}-5-methoxypyridin-4-yl)-1H-pyrazol-3-yl]amino}pyrazine-2-carbonitrile]	–	–	0.73	–	–	excellent cell growth suppression effect that is equivalent to that of prexasertib	–	–
COc1ccnc(OCC2(CN)CC2)c1-c1cc(Nc2cnc(C#N)cn2)n[nH]1 [Example 37, 5-{[5-(2-{[1-(aminomethyl)cyclopropyl]methoxy}-4-methoxypyridin-3-yl)-1H-pyrazol-3-yl]amino}pyrazine-2-carbonitrile]	<8438	< 2700	0.32	more potent effect of suppressing CHK1 activity than prexasertib	Not Detected	excellent cell growth suppression effect that is equivalent to that of prexasertib	–	do not exhibit inhibition of CYP3A4 based on MBI
COc1nccc(OCC2(CN)CC2)c1-c1cc(Nc2cnc(C#N)cn2)n[nH]1 [Example 38, 5-{[5-(4-{[1-(aminomethyl)cyclopropyl]methoxy}-2-methoxypyridin-3-yl)-1H-pyrazol-3-yl]amino}pyrazine-2-carbonitrile]	–	–	0.7	–	–	excellent cell growth suppression effect that is equivalent to that of prexasertib	–	–
